Results taken from patent US20260224708A1, “CONJUGATE COMPOUNDS AND COMPOSITIONS” (REZUBIO PHARMACEUTICALS CO., LTD, priority 2023, published 2026).
pEC50: −log10 of the molar value. Counter-ions that a name gives are not always drawn.

Legend:
[1] = Pharmacokinetics in mice, IV and PO; assay type: in vivo; settings: mouse, plasma, male ICR (CD-1) mice
Experimental: Male ICR (CD-1) mice at around 4-6 weeks with body weight of around 25 grams (n=3) were purchased from VT-River (Zhejiang, China). After 1-week acclimation, animals were dosed with exemplary compounds intravenously at 1 mpk or orally at 10 mpk (0.5% methylcellulose in PBS as vehicle for both routes of administration). Blood samples (30 μL) were collected via saphenous vein puncture at 5 (IV only), 15, 30, 60, 120, 240, 480, and 1440 min post dose. The blood samples were saved in 0.5 M K2EDTA coated tubes and centrifuged at 4,600 rpm at 4° C. for 5 min. Plasma samples were collected and stored in −80° C. till PK analysis.
Take 10 μL of K2EDTA-treated plasma samples of CD-1 mice, add 200 μL of precipitation solution with internal standard (5 ng/mL Terfenadine in MeOH/ACN), mix well by vortexing for 1 min at room temperature followed by centrifuge at 4° C. and 4000 rpm for 15 min. Save the supernatant as injection for LC-MS/MS quantification of exemplary compounds in plasma samples of mice.
Establish a standard curve before and after each analytical batch, accompanied by quality controls of low, medium, and high concentrations. The number of quality control samples is not less than 6 and should be equal to or more than the number of samples of each batch, and interspersed in sample measurement. Standard curve and quality control samples of each batch must meet the acceptance criteria.

GPR40 = molecular target: T1, GPR40 (Homo sapiens, UniProt O14842); assay: IP1 accumulation assay in HEK293 cells stably expressing GPR40; assay type: cell-based
T1 construct: expressed in transfected cells
Experimental: IP1 accumulation assay was used to evaluate the potency of compounds. HEK293 cells stably expressing GPR40 were cultured in 5% CO2 incubator (ThermoFisher) in maintenance media (Dulbecco's modified Eagle's medium with 4.5 g/L of glucose, 10% fetal bovine serum, 100 μg/mL Hygromycin, and Penicillin (100 U/mL)/Streptomycin (100 μg/mL)) till 100% confluency. Cells were harvested freshly, spun down at 300×g for 5 min, and resuspended in pre-warmed 1×stimulant buffer from Cisbio IP-One HTRF Detection kit (Cisbio). Cell density was adjusted to 2.0×10^6 cells/mL. DMSO was used as blank control and AMG-1638 (CAS #: 1142214-62-7) as positive control. Compounds were prepared at 10 mM in DMSO and 5 nL of 3×serially diluted compounds (10 concentrations) were added to each well of the 384-LDV assay plate (Corning) by using ECHO 550 (Labcyte). Five μL of cells in suspension were transferred into each well by using Multidrop Combi Reagent Dispenser (ThermoFisher). Assay plate was then sealed and incubated at 37° C. for 2 hours. IP-d2 reagent and anti-IP1 reagent were prepared following the manual (Cisbio). Five μL of IP1-d2 and then 5 μL of anti-IP1 antibody was added to each well sequentially. Assay plate was incubated at room temperature for 60 min and then read at 665 nm/615 nm on an Envision plate reader (PerkinElmer). […] Dose curve was fitted and EC50 of each compound was calculated by using XLFit.

T1 sequence (O14842 whole entry): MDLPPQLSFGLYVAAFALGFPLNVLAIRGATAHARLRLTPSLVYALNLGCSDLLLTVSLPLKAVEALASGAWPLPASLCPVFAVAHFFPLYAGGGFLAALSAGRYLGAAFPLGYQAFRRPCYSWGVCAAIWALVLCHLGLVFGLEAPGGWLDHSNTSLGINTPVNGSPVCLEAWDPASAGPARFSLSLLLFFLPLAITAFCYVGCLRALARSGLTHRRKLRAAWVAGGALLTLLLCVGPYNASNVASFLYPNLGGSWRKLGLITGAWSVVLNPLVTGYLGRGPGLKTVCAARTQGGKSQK

Row | Structure (SMILES) | clearance ([1]; 1 mg/kg, IV 1 mpk) [mL/min/kg] | other results
1 | COc1ccc(C(=O)N(CC(C)(C)CCCCCCCCCCCCCCCCCCCC(=O)NCCC[N+](C)(CC(=O)[O-])CC(=O)O)c2cccc(C)n2)c(N2CCC(COc3cc([C@@H](CC(=O)O)C4CC4)ccn3)CC2)c1 (stereo partly drawn) [Example 14] | 0.2 | –
2 | COc1ccc(C(=O)N(CC(C)(C)CCCCCCCCCCCCCCCCCC(=O)NCCC[N+]23CC[N+](C)(CC2)CC3)c2cccc(C)n2)c(N2CCC(COc3cc([C@@H](CC(=O)O)C4CC4)ccn3)CC2)c1 [Example 19] | 0.43 | –
3 | COc1ccc(C(=O)N(CC(C)(C)CCCCCCCCCCCCCCCCCC(=O)NCCC[N+](C)(CC(=O)NCCN)CC(=O)NCCN)c2cccc(C)n2)c(N2CCC(COc3cc([C@@H](CC(=O)O)C4CC4)ccn3)CC2)c1 [Example 12] | 0.15 | –
4 | COc1ccc(C(=O)N(CC(C)(C)CCCCCCCCCCCCCCCCCC(=O)NCCC[N+]23CCN(CC2)CC3)c2cccc(C)n2)c(N2CCC(COc3cc([C@@H](CC(=O)O)C4CC4)ccn3)CC2)c1 [Example 18, (S)-1-(3-(20-(2-(4-(((4-(2-carboxy-1-cyclopropylethyl)pyridin-2-yl)oxy)methyl)piperidin-1-yl)-4-methoxy-N-(6-methylpyridin-2-yl)benzamido)-19,19-dimethylicosanamido)propyl)-1,4-diazabicyclo[2.2.2]octan-1-ium TFA salt] | 0.32 | –
5 | COc1ccc(C(=O)N(CC(C)(C)CCn2cc(CCCCCCCCCCCCCCCCCC(=O)NCCC[N+]34CCN(CC3)CC4)nn2)c2cccc(C)n2)c(N2CCC(COc3cc([C@@H](CC(=O)O)C4CC4)ccn3)CC2)c1 [Example 34] | – | pEC50 (GPR40): 9.49
6 | COc1ccc(C(=O)N(CC(C)(C)CCCCCCCCCCCCCCCCCCCC(=O)NCCCN(CC(=O)O)CC(=O)O)c2cccc(C)n2)c(N2CCC(COc3cc([C@@H](CC(=O)O)C4CC4)ccn3)CC2)c1 [Example 13] | 0.14 | –

Continued, in another order:

Row | clearance ([1]; 1 mg/kg, IV 1 mpk) [mL/min/kg] | Structure (SMILES) | other results
7 | 0.67 | COc1ccc(C(=O)N(CC(C)(C)CCCCCCCCCCCCCCCCCCCCCC[N+]23CCN(CC2)CC3)c2cccc(C)n2)c(N2CCC(COc3cc([C@@H](CC(=O)O)C4CC4)ccn3)CC2)c1 [Example 21, (S)-1-(24-(2-(4-(((4-(2-carboxy-1-cyclopropylethyl)pyridin-2-yl)oxy)methyl)piperidin-1-yl)-4-methoxy-N-(6-methylpyridin-2-yl)benzamido)-23,23-dimethyltetracosyl)-1,4-diazabicyclo[2.2.2]octan-1-ium] | –
8 | 0.22 | COc1ccc(C(=O)N(CC(C)(C)CCCCCCCCCCCCCCCCCCCC(=O)NCC[N+](C)(CC(=O)NCCN)CC(=O)NCCN)c2cccc(C)n2)c(N2CCC(COc3cc([C@@H](CC(=O)O)C4CC4)ccn3)CC2)c1 [Example 4] | –
9 | 0.1 | COc1ccc(C(=O)N(CC(C)(C)CCCCCCCCCCCCCCCCCC(=O)NCC[N+](C)(CCCC(=O)NCCN)CCCC(=O)NCCN)c2cccc(C)n2)c(N2CCC(COc3cc([C@@H](CC(=O)O)C4CC4)ccn3)CC2)c1 [Example 17] | pEC50 (GPR40): 9.96; AUC ([1]; 1 mg/kg, IV 1 mpk): 104 µM·h; half-life ([1]; 1 mg/kg, IV 1 mpk): 630 min; Cmax ([1]; 10 mg/kg, PO 10 mpk): 238 nM; Tmax ([1]; 10 mg/kg, PO 10 mpk): 6.7 h; bioavailability ([1]; 10 mg/kg, PO 10 mpk, oral bioavailability): 0.41%
